In the supplement of paper PMC4862054:

How the values were obtained:
Conditions in all cases: incubation time: 72 h
[1] = tested on: MDA-MB-453; assay: normalised response (% of control), CellTox Green; higher = less cell death (100 = DMSO, 0 = benzethonium chloride kill control)
In short: (§1)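 Plates were normalised with 0.1 % DMSO as 100 and a positive kill control as 0. Breast cancer cell lines in 20 µl suspension had been seeded into 384-well plates with compound at 5 concentrations in 10-fold steps over a compound-specific 10,000-fold range, incubated 72 h, and read for CellTox Green fluorescence (485/520 nm) followed by CellTiter-Glo luminescence. Each value is the normalised signal at a single concentration.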

[2] = tested on: BT-474; assay: as above
In short: as §1

[3] = tested on: HCC1599; assay: as above
In short: as §1

[4] = tested on: MDA-MB-436; assay: as above
In short: as §1

[5] = tested on: HCC1143; assay: as above
In short: as §1

[6] = tested on: CAL-85-1; assay: as above
In short: as §1

[7] = tested on: MDA-MB-231; assay: as above
In short: as §1

[8] = tested on: MCF-10A; assay: as above
In short: as §1

[9] = tested on: CAL-120; assay: as above
In short: as §1

[10] = tested on: CAL-148; assay: as above
In short: as §1

[11] = tested on: MDA-MB-468; assay: as above
In short: as §1

[12] = tested on: DU-4475; assay: as above
In short: as §1

[13] = tested on: BT-549; assay: as above
In short: as §1

[14] = tested on: HDQ-P1; assay: as above
In short: as §1

[15] = tested on: CAL-51; assay: as above
In short: as §1

[16] = tested on: HCC1937; assay: as above
In short: as §1

[17] = tested on: MDA-MB-453; assay: normalised response (% of control), CellTiter-Glo; higher = more viable cells (100 = DMSO, 0 = benzethonium chloride kill control)
In short: as §1

[18] = tested on: BT-474; assay: as above
In short: as §1

[19] = tested on: HCC1599; assay: as above
In short: as §1

[20] = tested on: MDA-MB-436; assay: as above
In short: as §1

[21] = tested on: HCC1143; assay: as above
In short: as §1

[22] = tested on: CAL-85-1; assay: as above
In short: as §1

[23] = tested on: MDA-MB-231; assay: as above
In short: as §1

[24] = tested on: Hs578T; assay: as above
In short: as §1

[25] = tested on: MCF-10A; assay: as above
In short: as §1

[26] = tested on: CAL-120; assay: as above
In short: as §1

[27] = tested on: CAL-148; assay: as above
In short: as §1

[28] = tested on: MDA-MB-468; assay: as above
In short: as §1

[29] = tested on: DU-4475; assay: as above
In short: as §1

[30] = tested on: BT-549; assay: as above
In short: as §1

[31] = tested on: SK-BR-3; assay: as above
In short: as §1

[32] = tested on: HDQ-P1; assay: as above
In short: as §1

[33] = tested on: MFM-223; assay: as above
In short: as §1

[34] = tested on: CAL-51; assay: as above
In short: as §1

[35] = tested on: HCC1937; assay: as above
In short: as §1

[36] = tested on: MFM-223; assay: normalised response (% of control), CellTox Green; higher = less cell death (100 = DMSO, 0 = benzethonium chloride kill control)
In short: as §1

[37] = tested on: Hs578T; assay: as above
In short: as §1

SMILES	normalised response [1]	normalised response [2]	normalised response [3]	normalised response [4]	normalised response [5]	normalised response [6]	normalised response [7]	normalised response [8]	normalised response [9]	normalised response [10]	normalised response [11]	normalised response [12]	normalised response [13]	normalised response [14]	normalised response [15]	normalised response [16]	normalised response [17]	normalised response [18]	normalised response [19]	normalised response [20]	normalised response [21]	normalised response [22]	normalised response [23]	normalised response [24]	normalised response [25]	normalised response [26]	normalised response [27]	normalised response [28]	normalised response [29]	normalised response [30]	normalised response [31]	normalised response [32]	normalised response [33]	normalised response [34]	normalised response [35]	normalised response [36]	normalised response [37]
Nc1nccc(-c2c(-c3ccc(F)cc3)ncn2C2CCCCC2)n1 (1000 nM)	107%	102%	100%	81.5%	120%	104%	84%	109%	107%	98.4%	67.2%	107%	109%	103%	86.2%	91.5%	96.6%	98.9%	104%	103%	101%	96.7%	98.7%	104%	103%	108%	97.5%	68.9%	103%	101%	95.4%	106%	105%	97%	97.3%	–	–
CS(=O)(=O)CCNCc1ccc(-c2ccc3ncnc(Nc4ccc(OCc5cccc(F)c5)c(Cl)c4)c3c2)o1 [Lapatinib] (100 nM)	92.5%	96%	105%	91.4%	–	96.8%	115%	109%	96.9%	77.7%	116%	98.3%	126%	92.8%	101%	118%	92.2%	99.9%	97.2%	103%	103%	96.1%	108%	115%	79.1%	102%	98.3%	102%	99.1%	104%	50.2%	83.9%	104%	90.5%	94.6%	101%	–
CCCC(CCC)C(=O)O [Valproic acid] (100000 nM)	111%	98.1%	101%	109%	110%	107%	102%	53%	107%	85.4%	123%	105%	95.3%	75.3%	53.4%	86.4%	91.1%	98.6%	94.1%	101%	101%	101%	98.7%	104%	101%	96.1%	91.4%	97.8%	94%	103%	101%	101%	99.2%	83.5%	103%	99.4%	63.5%
CN(c1ccccc1CNc1nc(Nc2ccc3c(c2)CC(=O)N3)ncc1C(F)(F)F)S(C)(=O)=O (1000 nM)	106%	101%	97.1%	104%	71.2%	99.4%	83.4%	101%	99.7%	96.8%	150%	97.4%	116%	–	15.1%	111%	128%	73.2%	107%	101%	87.8%	87.2%	76.4%	89.1%	63.5%	81%	91.1%	69%	84.8%	93.5%	79.7%	84.5%	92.3%	53.6%	94.5%	–	65.3%
C[C@@H]1CCN(C(=O)CC#N)C[C@@H]1N(C)c1ncnc2[nH]ccc12 [Tofacitinib] (500 nM)	101%	104%	112%	82.4%	98%	102%	116%	64.1%	102%	108%	137%	101%	129%	102%	103%	132%	94.5%	107%	138%	104%	99.6%	106%	107%	99.8%	97.5%	98.6%	109%	104%	103%	98.4%	107%	104%	108%	75.8%	100%	103%	115%
Cc1cc(C(C)Nc2ccccc2)c2nc(N3CCOCC3)cc(=O)n2c1 (configuration not stated) [TGX-221] (1000 nM)	105%	95.7%	101%	90.5%	90.6%	106%	110%	105%	99.8%	90.8%	113%	96.2%	92.6%	103%	105%	102%	97.2%	83.3%	106%	89.4%	89.4%	91.7%	89.7%	93.7%	93.8%	94.8%	98.1%	77.8%	95.7%	88.8%	91.7%	88%	95%	102%	86.9%	80.3%	97.5%
COc1cc(Nc2ncc(F)c(Nc3ccc4c(n3)NC(=O)C(C)(C)O4)n2)cc(OC)c1OC [Tamatinib] (1000 nM)	103%	99.7%	103%	94.2%	119%	103%	107%	105%	105%	102%	–	100%	90.7%	105%	89.9%	–	105%	96.6%	106%	104%	104%	95.1%	101%	101%	104%	97.2%	95.6%	88.7%	103%	77.5%	104%	98.4%	104%	92.1%	102%	103%	108%
CN(c1ccccc1CNc1nc(Nc2ccc3c(c2)CC(=O)N3)ncc1C(F)(F)F)S(C)(=O)=O (10 nM)	–	–	–	–	–	–	–	–	–	–	–	–	–	–	–	–	96.6%	92.1%	91.4%	92%	99.5%	94.6%	87.9%	92%	100%	94.4%	101%	84.8%	94.8%	97%	111%	101%	91.4%	102%	97.5%	–	–
CCCC(CCC)C(=O)O [Valproic acid] (100 nM)	–	–	–	–	–	–	–	–	–	–	–	–	–	–	–	–	109%	98.9%	88.9%	106%	102%	97.1%	105%	104%	101%	103%	102%	97.1%	96.2%	99.7%	95.8%	101%	95.5%	103%	96.4%	–	–
C[C@@]1(C(=O)Nc2ccc(F)nc2)CCCN1c1nc(Nc2cc(C3CC3)n[nH]2)c2cccn2n1 (10 nM)	–	–	–	–	–	–	–	–	–	–	–	–	–	–	–	–	92.8%	90.7%	96.1%	92.5%	97.5%	91.6%	88.1%	92.4%	67.5%	91.2%	87.3%	86.8%	99.5%	88%	71.5%	85.4%	83.4%	99.3%	95.4%	–	–
Cn1cnc2c(F)c(Nc3ccc(Br)cc3F)c(C(=O)NOCCO)cc21 [MEK-162] (1 nM)	–	–	–	–	–	–	–	–	–	–	–	–	–	–	–	–	103%	106%	99.7%	101%	99.6%	95.7%	99%	95.4%	96.1%	100%	102%	103%	99.7%	99.8%	116%	93.2%	103%	108%	96.3%	–	–
